Assay [1] has as its target T1, CLK4 (Cdc-like kinase 4; Cdc2-like kinase 4) (Homo sapiens, UniProt Q9HAZ1). In words: LanthaScreen Eu kinase binding assay (FRET). The source says:
(§1) LanthaScreen Eu kinase binding assay (FRET) on CLK4 (Cdc-like kinase 4; Cdc2-like kinase 4)
(In general: TR-FRET usually uses a lanthanide donor and a delayed reading to cut background.)

Assay [2] has as its target T2, CLK2 (Homo sapiens, UniProt P49760).
T2 construct: Thermo Fisher SelectScreen panel kinase
In words: SelectScreen kinase profiling (assay format per kinase not given). In kind it is biochemical. The conditions noted are these: read-out: % inhibition at 30 nM.

Assay [3] has as its target T1, CLK4 (Cdc-like kinase 4; Cdc2-like kinase 4). In words: biochemical. Also noted: Thermo Fisher SelectScreen kinase assays (LanthaScreen Eu binding, Adapta or Z'LYTE), per cent inhibition. The method, then:
(§2) Enzyme‐based assays were carried out by Thermo Fisher Scientific (Waltham, MA, USA). Thermo Fisher Scientific utilizes LanthaScreen Eu Kinase Binding Assay Technology (www.thermofisher.com/lanthascreen), which is based on fluorescence resonance energy transfer (FRET), to conduct the kinase activity assays. Fluorescent receptor dyes are conjugated to the kinase, and an Eu‐labeled anti‐tag antibody is added to detect the phosphorylated fluorescein‐labeled substrate. The fluorescence‐labeled kinase, antibody, and test compounds are combined in an appropriate buffer solution. After incubation, the mixture is placed in a fluorescent plate reader capable of detecting FRET signals. FRET efficiency is calculated by comparing the ratio of the acceptor emission to the donor emission. The selected compounds were evaluated at specified concentrations, and IC50 values were determined using GraphPad Prism software (La Jolla, CA, USA). Each enzymatic activity assay was performed in duplicate, following the quality control guidelines of Thermo Fisher Scientific. Kinase profiling was carried out using the SelectScreen kinase profiling service provided by Thermo Fisher Scientific, with supplementary assays such as Adapta and Z'LYTE included when available for the respective kinases. The detailed protocols are available at the following links: www.thermofisher.com/adapta and https://www.thermofisher.com/z‐lyte. Selectivity is essential for kinase inhibitors to minimize off‐target effects and reduce adverse reactions. Selective inhibitors also enable researchers to better understand the specific functions of targets like CLK4 in physiological and pathological pathways. Therefore, we further evaluated the selectivity of compound 150441 using kinase profiling analysis. The compound was tested at a concentration of 30 nM against a panel of 60 kinases from various families using Thermo Fisher SelectScreen kinase profiling services (Figure 7 ). […] In addition, CLKs comprise four isoforms: CLK1, CLK2, CLK3, and CLK4.

In assay [4] the target is T3, CLK1 (Homo sapiens, UniProt P49759).
T3 construct: Thermo Fisher SelectScreen panel kinase
T3 sequence (P49759 whole entry): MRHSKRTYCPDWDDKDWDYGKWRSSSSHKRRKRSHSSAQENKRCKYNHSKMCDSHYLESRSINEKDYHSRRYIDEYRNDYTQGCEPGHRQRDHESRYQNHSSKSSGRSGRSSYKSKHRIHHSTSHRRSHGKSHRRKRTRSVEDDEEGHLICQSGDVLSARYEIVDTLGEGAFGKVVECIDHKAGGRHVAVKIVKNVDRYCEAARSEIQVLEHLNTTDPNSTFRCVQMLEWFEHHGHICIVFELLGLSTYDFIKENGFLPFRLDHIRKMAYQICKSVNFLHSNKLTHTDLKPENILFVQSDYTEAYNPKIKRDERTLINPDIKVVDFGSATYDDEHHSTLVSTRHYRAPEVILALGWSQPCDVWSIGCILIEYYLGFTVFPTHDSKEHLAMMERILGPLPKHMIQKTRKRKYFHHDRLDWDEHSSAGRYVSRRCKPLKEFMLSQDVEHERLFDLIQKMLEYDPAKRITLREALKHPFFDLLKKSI
In words: biochemical. Also noted: Thermo Fisher SelectScreen kinase assays (LanthaScreen Eu binding, Adapta or Z'LYTE), per cent inhibition. As to the method:
as §2

Assay [5] deals with T4, CLK3 (Homo sapiens, UniProt P49761).
T4 construct: Thermo Fisher SelectScreen panel kinase
T4 sequence (P49761 whole entry): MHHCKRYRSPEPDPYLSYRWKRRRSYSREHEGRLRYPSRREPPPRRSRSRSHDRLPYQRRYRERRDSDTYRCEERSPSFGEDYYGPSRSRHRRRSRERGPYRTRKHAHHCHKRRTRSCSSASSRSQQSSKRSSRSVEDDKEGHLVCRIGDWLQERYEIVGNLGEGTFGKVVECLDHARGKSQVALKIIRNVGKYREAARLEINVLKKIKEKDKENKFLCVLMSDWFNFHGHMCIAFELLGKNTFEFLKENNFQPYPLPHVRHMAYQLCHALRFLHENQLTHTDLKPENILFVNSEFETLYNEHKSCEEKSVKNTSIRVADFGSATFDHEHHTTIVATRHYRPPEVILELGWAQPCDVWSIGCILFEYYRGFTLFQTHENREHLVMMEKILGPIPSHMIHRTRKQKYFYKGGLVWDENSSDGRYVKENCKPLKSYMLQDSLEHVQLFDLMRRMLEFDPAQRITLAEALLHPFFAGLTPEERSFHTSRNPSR
Put plainly: biochemical. Also noted: Thermo Fisher SelectScreen kinase assays (LanthaScreen Eu binding, Adapta or Z'LYTE), per cent inhibition. The method, then:
as §2

The target in assay [6] is T2, CLK2. Put plainly: biochemical. Also noted: Thermo Fisher SelectScreen kinase assays (LanthaScreen Eu binding, Adapta or Z'LYTE), per cent inhibition. As to the method: as §2
In assay [7] the target is T3, CLK1. In words: SelectScreen kinase profiling (assay format per kinase not given). In kind it is biochemical. The note with it: read-out: % inhibition at 30 nM.
Assay [8] addresses T4, CLK3. Described as above. The conditions noted are these: read-out: % inhibition at 30 nM. In kind it is biochemical.
In assay [9] the target is T1, CLK4 (Cdc-like kinase 4; Cdc2-like kinase 4). In words: LanthaScreen Eu kinase binding assay (FRET). In kind it is biochemical.
Description: as §1

We go through eight compounds from PMC12097107, “Identification and Biological Evaluation of a Novel CLK4 Inhibitor Targeting Alternative Splicing in Pancreatic Cancer Using Structure‐Based Virtual Screening” (Advanced Science, 2025).

T2 sequence (P49760 whole entry): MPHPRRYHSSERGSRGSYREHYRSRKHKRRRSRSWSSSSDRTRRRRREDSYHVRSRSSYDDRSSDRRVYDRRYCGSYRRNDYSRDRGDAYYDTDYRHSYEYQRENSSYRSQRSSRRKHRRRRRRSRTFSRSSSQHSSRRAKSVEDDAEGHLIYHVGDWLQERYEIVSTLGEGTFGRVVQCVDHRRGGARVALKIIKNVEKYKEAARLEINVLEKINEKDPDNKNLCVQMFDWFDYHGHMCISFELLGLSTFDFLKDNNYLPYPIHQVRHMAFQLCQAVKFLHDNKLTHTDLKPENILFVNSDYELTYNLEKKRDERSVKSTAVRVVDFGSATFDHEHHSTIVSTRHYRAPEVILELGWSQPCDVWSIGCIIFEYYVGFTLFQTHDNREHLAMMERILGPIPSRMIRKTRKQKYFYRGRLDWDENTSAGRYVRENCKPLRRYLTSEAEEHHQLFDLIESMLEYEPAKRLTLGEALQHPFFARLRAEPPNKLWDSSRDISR
T1 sequence (Q9HAZ1 whole entry): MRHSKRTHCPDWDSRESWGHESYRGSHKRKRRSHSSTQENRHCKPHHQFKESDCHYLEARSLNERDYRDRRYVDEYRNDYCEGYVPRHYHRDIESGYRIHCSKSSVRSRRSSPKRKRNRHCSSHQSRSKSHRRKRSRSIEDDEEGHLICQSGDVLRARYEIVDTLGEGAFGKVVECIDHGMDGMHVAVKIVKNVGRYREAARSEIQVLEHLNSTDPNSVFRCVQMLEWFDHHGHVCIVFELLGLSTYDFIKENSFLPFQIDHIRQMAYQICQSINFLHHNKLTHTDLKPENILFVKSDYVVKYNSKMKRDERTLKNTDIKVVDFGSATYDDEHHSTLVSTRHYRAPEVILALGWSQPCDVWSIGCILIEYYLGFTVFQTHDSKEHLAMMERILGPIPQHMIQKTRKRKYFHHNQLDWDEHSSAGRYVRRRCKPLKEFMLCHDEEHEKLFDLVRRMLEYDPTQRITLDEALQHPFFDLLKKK

One may read the IC50 as the concentration that inhibits the measured activity by half. A lower IC50 goes with inhibition by little substance. Turning to `COc1ccc2[nH]c3c(C)c4ccncc4c(C)c3c2c1` [compound 69187, 69187], in assay [1], the IC50 stood at 98.8 nM.
As a reminder, the inhibition is how much of the control response was suppressed. Take `Cc1c2cnccc2c(C)c2c1c1ccccc1n2CCN(C)C` [compound 150441, 150441]: the half-maximal inhibitory concentration (IC50) in assay [1] was found to be 21.4 nM. Besides, the values for the inhibition at 0.03 µM in assay [2], in assay [7] and in assay [8] were 9.1%, 7% and 1.8%, respectively. In addition, the inhibition at 1 µM was 98% in [3], 75% in assay [4], 6% in assay [5] and 62% in [6].
The compound `COc1ccc2c(c1)c1c(C)c3cnccc3c(C)c1n2CC1CO1` (centres unmarked) [compound 150836, 150836] displayed a concentration for half-maximal inhibition (IC50) in assay [1] of 101 nM.
`Cc1c2cnccc2c(C)c2c1c1ccccc1n2CC1CO1` (centres unmarked) [compound 152731, 152731] returned a half-inhibitory concentration (IC50) in [1] of 38.2 nM. Further, the inhibition at 1 µM in assay [3] was 98%; in [4], 86%; in [5] it was 4%; in [6] it was 81%.
For `Cc1c2cnccc2c(C)c2c1c1ccccc1n2CCNCc1ccccc1` [compound 164016, 164016], in that order: 34.8 nM, 95%, 65%, 7% and 69%.
On to `COc1ccc2[nH]c3c(C)c4cc[n+]([O-])cc4c(C)c3c2c1` [compound 237069, 237069], for which, in assay [9], the inhibition at 1 µM stood at 47%.
Turning to `Cc1c2c(C(N)=O)nccc2c(C)c2c1c1ccccc1n2Cc1ccccc1` [compound 320613, 320613], testing at 1 µM in [9] gave an inhibition of 3%.
Turning to `Cc1c2cnccc2c(C)c2c1c1ccccc1n2Cc1ccccc1` [compound 322087, 322087], the IC50 in assay [1] turned out to be 121 nM.
